Assay results from patent publication US20230263822A1, “MODULATION OF FACTOR 11 EXPRESSION” (Ionis Pharmaceuticals, Inc., priority 2008, published 2023).
Where two headings read alike, the source gives them in different places.

Experiments:
[1] = mouse, in vivo, sc, 50 mg/kg
[2] = mouse, in vivo, sc, 50 mg/kg; remark: listed apart in the source
[3] = mouse, in vivo, sc, 50 mg/kg; remark: listed apart in the source
[4] = rat, in vivo, sc, 50 mg/kg
[5] = rat, in vivo, sc, 50 mg/kg; remark: listed apart in the source
[6] = rat, in vivo, sc, 50 mg/kg; remark: listed apart in the source

ISIS 416851: MOE gapmer, nucleobases 1275 to 1318 of SEQ ID NO: 1 (Table 8) (antisense GTGCACAGTTTCTGGCAGGC; MOE gapmer, wing and gap sizes not given here)
ALT [1]: 47 IU/L | AST [1]: 76 IU/L | Bilirubin [1]: 0.19 mg/dL | Cholesterol [1]: 106 mg/dL | BUN [2]: 21 mg/dL | HCT [3]: 47% | Lymphocyte [3]: 4162 cells/μL | Neutrophil [3]: 1619 cells/μL | Platelets [3]: 984 10^3/μL | RBC [3]: 9 10^6/μL | WBC [3]: 6 10^3/μL | hemoglobin [3]: 14 g/dL | monocytes [3]: 194 cells/μL | ALT [4]: 64 IU/L | AST [4]: 91 IU/L | Albumin [4]: 4 | Bilirubin [4]: 0.14 mg/dL | BUN [5]: 24 mg/dL | Creatinine [5]: 70 mg/dL | Total urine protein [5]: 286 mg/dL | Urine protein/creatinine ratio [5]: 4.0 | HCT [6]: 42% | Lymphocyte [6]: 9911 | Neutrophil [6]: 1001 | Platelets [6]: 734 | RBC [6]: 7.4 10^6/μL | WBC [6]: 11 10^3/μL | hemoglobin [6]: 13.7 g/dL

ISIS 416852: MOE gapmer, nucleobases 1275 to 1318 of SEQ ID NO: 1 (Table 8) (antisense TGGTGCACAGTTTCTGGCAG; MOE gapmer, wing and gap sizes not given here)
ALT [1]: 49 IU/L | AST [1]: 91 IU/L | Bilirubin [1]: 0.16 mg/dL | Cholesterol [1]: 125 mg/dL | BUN [2]: 21 mg/dL | HCT [3]: 49% | Lymphocyte [3]: 3646 cells/μL | Neutrophil [3]: 1241 cells/μL | Platelets [3]: 903 10^3/μL | RBC [3]: 9 10^6/μL | WBC [3]: 5 10^3/μL | hemoglobin [3]: 14 g/dL | monocytes [3]: 189 cells/μL | ALT [4]: 49 IU/L | AST [4]: 87 IU/L | Albumin [4]: 4 | Bilirubin [4]: 0.15 mg/dL | BUN [5]: 25 mg/dL | Creatinine [5]: 60 mg/dL | Total urine protein [5]: 189 mg/dL | Urine protein/creatinine ratio [5]: 3.0 | HCT [6]: 42% | Lymphocyte [6]: 11956 | Neutrophil [6]: 836 | Platelets [6]: 632 | RBC [6]: 7.2 10^6/μL | WBC [6]: 13 10^3/μL | hemoglobin [6]: 13.4 g/dL

ISIS 416856: MOE gapmer, nucleobases 1275 to 1318 of SEQ ID NO: 1 (Table 8) (antisense GGCATTGGTGCACAGTTTCT; MOE gapmer, wing and gap sizes not given here)
ALT [1]: 130 IU/L | AST [1]: 129 IU/L | Bilirubin [1]: 0.23 mg/dL | Cholesterol [1]: 109 mg/dL | BUN [2]: 21 mg/dL | HCT [3]: 47% | Lymphocyte [3]: 3622 cells/μL | Neutrophil [3]: 1292 cells/μL | Platelets [3]: 753 10^3/μL | RBC [3]: 9 10^6/μL | WBC [3]: 5 10^3/μL | hemoglobin [3]: 14 g/dL | monocytes [3]: 151 cells/μL | ALT [4]: 123 IU/L | AST [4]: 222 IU/L | Albumin [4]: 4 | Bilirubin [4]: 0.13 mg/dL | BUN [5]: 23 mg/dL | Creatinine [5]: 48 mg/dL | Total urine protein [5]: 128 mg/dL | Urine protein/creatinine ratio [5]: 2.7 | HCT [6]: 43% | Lymphocyte [6]: 14328 | Neutrophil [6]: 3280 | Platelets [6]: 740 | RBC [6]: 7.7 10^6/μL | WBC [6]: 19 10^3/μL | hemoglobin [6]: 14.1 g/dL

ISIS 416859: MOE gapmer, nucleobases 1275 to 1318 of SEQ ID NO: 1 (Table 8) (antisense GACGGCATTGGTGCACAGTT; MOE gapmer, wing and gap sizes not given here)
ALT [1]: 214 IU/L | AST [1]: 293 IU/L | Bilirubin [1]: 0.20 mg/dL | Cholesterol [1]: 160 mg/dL | BUN [2]: 18 mg/dL | HCT [3]: 49% | Lymphocyte [3]: 4363 cells/μL | Neutrophil [3]: 1561 cells/μL | Platelets [3]: 826 10^3/μL | RBC [3]: 10 10^6/μL | WBC [3]: 6 10^3/μL | hemoglobin [3]: 15 g/dL | monocytes [3]: 229 cells/μL | ALT [4]: 114 IU/L | AST [4]: 206 IU/L | Albumin [4]: 5 | Bilirubin [4]: 0.21 mg/dL | BUN [5]: 24 mg/dL | Creatinine [5]: 44 mg/dL | Total urine protein [5]: 144 mg/dL | Urine protein/creatinine ratio [5]: 3.3 | HCT [6]: 45% | Lymphocyte [6]: 14323 | Neutrophil [6]: 1414 | Platelets [6]: 853 | RBC [6]: 7.8 10^6/μL | WBC [6]: 16 10^3/μL | hemoglobin [6]: 14.0 g/dL

ISIS 416860: MOE gapmer, nucleobases 1275 to 1318 of SEQ ID NO: 1 (Table 8) (antisense CGGACGGCATTGGTGCACAG; MOE gapmer, wing and gap sizes not given here)
ALT [1]: 189 IU/L | AST [1]: 160 IU/L | Bilirubin [1]: 0.23 mg/dL | Cholesterol [1]: 152 mg/dL | BUN [2]: 25 mg/dL | HCT [3]: 51% | Lymphocyte [3]: 4889 cells/μL | Neutrophil [3]: 1291 cells/μL | Platelets [3]: 937 10^3/μL | RBC [3]: 10 10^6/μL | WBC [3]: 7 10^3/μL | hemoglobin [3]: 15 g/dL | monocytes [3]: 161 cells/μL | ALT [4]: 70 IU/L | AST [4]: 157 IU/L | Albumin [4]: 4 | Bilirubin [4]: 0.15 mg/dL | BUN [5]: 23 mg/dL | Creatinine [5]: 58 mg/dL | Total urine protein [5]: 242 mg/dL | Urine protein/creatinine ratio [5]: 4.6 | HCT [6]: 45% | Lymphocyte [6]: 13986 | Neutrophil [6]: 1841 | Platelets [6]: 669 | RBC [6]: 7.8 10^6/μL | WBC [6]: 17 10^3/μL | hemoglobin [6]: 14.1 g/dL

ISIS 416861: MOE gapmer, nucleobases 1275 to 1318 of SEQ ID NO: 1 (Table 8) (antisense GCGGACGGCATTGGTGCACA; MOE gapmer, wing and gap sizes not given here)
ALT [1]: 38 IU/L | AST [1]: 85 IU/L | Bilirubin [1]: 0.27 mg/dL | Cholesterol [1]: 133 mg/dL | BUN [2]: 23 mg/dL | HCT [3]: 48% | Lymphocyte [3]: 5119 cells/μL | Neutrophil [3]: 1122 cells/μL | Platelets [3]: 836 10^3/μL | RBC [3]: 9 10^6/μL | WBC [3]: 7 10^3/μL | hemoglobin [3]: 14 g/dL | monocytes [3]: 219 cells/μL | ALT [4]: 89 IU/L | AST [4]: 154 IU/L | Albumin [4]: 5 | Bilirubin [4]: 0.15 mg/dL | BUN [5]: 22 mg/dL | Creatinine [5]: 39 mg/dL | Total urine protein [5]: 205 mg/dL | Urine protein/creatinine ratio [5]: 5.1 | HCT [6]: 45% | Lymphocyte [6]: 12865 | Neutrophil [6]: 1813 | Platelets [6]: 1008 | RBC [6]: 7.7 10^6/μL | WBC [6]: 15 10^3/μL | hemoglobin [6]: 14.6 g/dL

ISIS 416863: MOE gapmer, nucleobases 1275 to 1318 of SEQ ID NO: 1 (Table 8) (antisense CAGCGGACGGCATTGGTGCA; MOE gapmer, wing and gap sizes not given here)
ALT [1]: 41 IU/L | AST [1]: 101 IU/L | Bilirubin [1]: 0.24 mg/dL | Cholesterol [1]: 118 mg/dL | BUN [2]: 22 mg/dL | HCT [3]: 48% | Lymphocyte [3]: 5617 cells/μL | Neutrophil [3]: 1330 cells/μL | Platelets [3]: 1131 10^3/μL | RBC [3]: 9 10^6/μL | WBC [3]: 7 10^3/μL | hemoglobin [3]: 14 g/dL | monocytes [3]: 226 cells/μL | ALT [4]: 47 IU/L | AST [4]: 78 IU/L | Albumin [4]: 4 | Bilirubin [4]: 0.13 mg/dL | BUN [5]: 29 mg/dL | Creatinine [5]: 73 mg/dL | Total urine protein [5]: 269 mg/dL | Urine protein/creatinine ratio [5]: 3.8 | HCT [6]: 45% | Lymphocyte [6]: 14669 | Neutrophil [6]: 1720 | Platelets [6]: 674 | RBC [6]: 7.6 10^6/μL | WBC [6]: 17 10^3/μL | hemoglobin [6]: 14.1 g/dL

ISIS 416866: MOE gapmer, nucleobases 1275 to 1318 of SEQ ID NO: 1 (Table 8) (antisense CTGGCAGCGGACGGCATTGG; MOE gapmer, wing and gap sizes not given here)
ALT [1]: 36 IU/L | AST [1]: 120 IU/L | Bilirubin [1]: 0.29 mg/dL | Cholesterol [1]: 113 mg/dL | BUN [2]: 22 mg/dL | HCT [3]: 51% | Lymphocyte [3]: 4621 cells/μL | Neutrophil [3]: 1201 cells/μL | Platelets [3]: 1045 10^3/μL | RBC [3]: 9 10^6/μL | WBC [3]: 6 10^3/μL | hemoglobin [3]: 15 g/dL | monocytes [3]: 211 cells/μL | ALT [4]: 41 IU/L | AST [4]: 78 IU/L | Albumin [4]: 4 | Bilirubin [4]: 0.16 mg/dL | BUN [5]: 22 mg/dL | Creatinine [5]: 85 mg/dL | Total urine protein [5]: 486 mg/dL | Urine protein/creatinine ratio [5]: 6.2 | HCT [6]: 44% | Lymphocyte [6]: 16834 | Neutrophil [6]: 1916 | Platelets [6]: 900 | RBC [6]: 7.8 10^6/μL | WBC [6]: 20 10^3/μL | hemoglobin [6]: 14.0 g/dL
